Legend:
[1] = target: 18 Kd peripheral benzodiazepine receptor protein; experiment: Benzodiazepine radioligand binding assay ([3H]PK 11195) in adrenal mitochondria; set-up: species or system rat
Protocol: See, Garnier, et al., Endocrinology 132:444 (1993). Mitochondria were prepared as described in Krueger, et al., J. Biol. Chem. 265:15015 (1990). Mitochondria ([…] of protein) were resuspended in phosphate buffered saline (PBS) and [^3H]PK 11195 (New England Nuclear, Wilmington, Del., USA). Binding studies were performed at 4° C. in a final incubation volume of 0.3 ml, using radioligand in the concentration range of 0.019-20.00 nM and 200 fold excess of unlabeled PK 11195 (Research Biochemicals, Natick, Mass., USA), as described in Garnier, et al., Endocrinology 132:444 (1993) and Garnier, et al., Mol. Pharm. 45:201 (1994). After 120 min. incubation time, the assay was stopped by filtration through Whatman GF/C filters and washed with 15 ml ice-cold PBS. Radioactivity trapped on the filters were determined by liquid scintillation counting at 50% counting efficiency. The dissociation constant (Kd) and the number of binding sites (Bmax) were determined by […] analysis of the data using the ligand™ program (Kell, V.4.0, Biosoft, Inc.). See Munson, et al., Anal. Biochem. 107:220 (1980).

[2] = test system: corticosterone (a glucocorticoid in rats); experiment: Assay for determining the inhibition of glucocorticoids: serum corticosterone by radioimmunoassay; format: in vivo, Sprague-Dawley rats; details: 2 mg/kg intraperitoneally once daily for eight days; for CORTICOSTERONE: serum, control 161
Protocol: (§1) In each experiment, at least six rats per treatment group were used. After eight days of treatment, the rats were sacrificed.
(§2) The level of steroids in the rats was measured by radioimmunoassay from organic extracts of the collected serum. The levels of corticosterone (a glucocorticoid in rats) and testosterone were measured by radioimmunoassay using antibodies from Endocrine Sciences (Tarlana, Calif., USA) under conditions described by the supplier. The level of plasma ACTH was measured by radioimmunoassay using the method of Crousos, et al., New Engl. J. Med. 310:622 (1984). The level of aldosterone was measured by radioimmunoassay using a kit from Diagnostics Products Corp. (Los Angeles, Calif., USA).

plasma ACTH = experiment: Plasma ACTH by radioimmunoassay in treated rats; format: in vivo, Sprague-Dawley rats; details: 2 mg/kg intraperitoneally once daily for eight days; for ACTH: plasma, control 28.0
Protocol: as §1, §2

aldosterone = experiment: Serum aldosterone by radioimmunoassay in treated rats; format: in vivo, Sprague-Dawley rats; details: 2 mg/kg intraperitoneally once daily for eight days; for ALDOS-STERONE: serum, control 685
Protocol: as §1, §2

testosterone = experiment: Serum testosterone by radioimmunoassay in treated rats; format: in vivo, Sprague-Dawley rats; details: 2 mg/kg intraperitoneally once daily for eight days; for TESTOSTERONE: serum, control 4.50
Protocol: as §1, §2

[3] = test system: peripheral benzodiazepine receptor mRNA; experiment: mRNA expression of benzodiazepine receptor in adrenal tissue (RNA blot, PBR cDNA probe); set-up: species or system rat; details: adrenal tissue total RNA, densiometric analysis
Protocol: mRNA Expression of Benzodiazepine Receptor The ginkgolide induced decrease in mRNA expression of the benzodiazepine receptor was also confirmed. Total cellular RNA from adrenal tissue was isolated by the acid guanidinium thiocyanate-phenol-chloroform extraction method (Chomczynski, et al., Anal. Biochem. 162:156-159 (1987)) using the RNAzol B reagent (Tel-Test Inc., Friendswood, Texas, USA). RNA electrophoresis transfer, probe labelling, and membrane hybridization were performed as previously described in Dym, et al., Endocrinology 128:1167-1176 (1991). RNA was size-fractionated by electrophoresis and transferred to derivatized nylon membranes (Nytran Plus, Schleicher & Schuell, Keene, New Hampshire, USA). The blots were then hybridized against the [^32p] cDNA probe for PBR labelled by the random priming technique. The 781 base-pair probe for PBR mRNA used was prepared as previously described in Garnier, et al., Endocrinology 132:444-458 (1993). Screen enhanced autoradiography was performed by exposing Kodak X-OMAT AR films to the blots at −80° C for 48 hours. Densiometric analysis of the spots was performed as described above.

Kd ([1]; dissociation constant of radioligand [3H]PK 11195 in adrenal mitochondria after treatment with the substance, 4° C., 120 min, control 1.7)	decrease of expression of the 18 Kd peripheral benzodiazepine receptor protein ([1]; from Bmax versus control, adrenal mitochondria)	Bmax ([1]; number of [3H]PK 11195 binding sites in adrenal mitochondria after treatment with the substance, control 11.2)	SMILES	effect on the level of corticosterone in the rats [2]	CORTICOSTERONE [2]	effect on ACTH release (plasma ACTH)	ACTH (plasma ACTH)	effect on serum levels of aldosterone (aldosterone)	ALDOS-STERONE (aldosterone)	effect on serum levels of testosterone (testosterone)	TESTOSTERONE (testosterone)	reduction of peripheral benzodiazepine receptor mRNA expression [3]
1.3 nM	50%	5.6 pmol/mg	C[C@@H]1C(=O)O[C@H]2C[C@@]34[C@H]5C[C@@H](C(C)(C)C)[C@]36[C@@H](OC(=O)[C@@H]6O)O[C@@]4(C(=O)O5)[C@]21O [Ginkgolide A, ginkgolide A]	decrease	66 ng/mL	increase ACTH release	103 pg/mL	unaffected	638 pg/mL	unaffected	4.75 ng/mL	
			CC1C(=O)OC2C(O)C34C5CC(C(C)(C)C)C36C(OC(=O)C6O)OC4(C(=O)O5)C12O (centres unmarked) [Ginkgolide B, ginkgolide B]	decrease	75 ng/mL	increase ACTH release	71.4 pg/mL	unaffected	893 pg/mL	unaffected	4.50 ng/mL	85%

Reference: patent US20020006955A1, “Ginkgolides for inhibition of membrane expression of benzodiazepine receptors” (priority 1995, published 2002)
